Assays:
[1] = molecular target: T1, CDK7 (Homo sapiens, UniProt P50613); assay: Rescue of compound-induced CDK7 degradation in Jurkat cells (ligand and proteasome dependence), immunoblot; assay type: cell-based; settings: for rescue of the CDK7 degradation induced by bispecific compound 3 / rescue of the CDK7 degradation induced by bispecific compound 20: Jurkat cells pretreated 2 h (10 μM YKL-5-124, 10 μM DGY-05-180, 0.2 μM Bortezomib, 1 μM MLN4924); for rescue of the CDK7 degradation induced by bispecific compound 3: then 1 μM compound 3 for 4 h; for rescue of the CDK7 degradation induced by bispecific compound 20: then 1 μM compound 20 for 4 h; for dependence of the induced CDK7 degradation: Jurkat cells, 1 μM compound for 4 h after 2 h pretreatment with competitor or pathway inhibitor
T1 construct: endogenous in cells; host or cells: Jurkat cells
T1 sequence (P50613 2-346 limits assumed): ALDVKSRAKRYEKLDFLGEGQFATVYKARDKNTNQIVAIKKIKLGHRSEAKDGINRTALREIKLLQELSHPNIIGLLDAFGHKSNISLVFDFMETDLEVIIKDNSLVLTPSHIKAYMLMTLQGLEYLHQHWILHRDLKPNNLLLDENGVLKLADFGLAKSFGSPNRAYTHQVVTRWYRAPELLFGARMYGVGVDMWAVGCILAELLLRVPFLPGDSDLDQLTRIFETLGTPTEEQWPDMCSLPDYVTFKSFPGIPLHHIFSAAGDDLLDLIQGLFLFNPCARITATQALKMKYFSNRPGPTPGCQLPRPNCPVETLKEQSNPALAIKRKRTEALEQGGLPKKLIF
T1 sequence (P51946 whole entry partner): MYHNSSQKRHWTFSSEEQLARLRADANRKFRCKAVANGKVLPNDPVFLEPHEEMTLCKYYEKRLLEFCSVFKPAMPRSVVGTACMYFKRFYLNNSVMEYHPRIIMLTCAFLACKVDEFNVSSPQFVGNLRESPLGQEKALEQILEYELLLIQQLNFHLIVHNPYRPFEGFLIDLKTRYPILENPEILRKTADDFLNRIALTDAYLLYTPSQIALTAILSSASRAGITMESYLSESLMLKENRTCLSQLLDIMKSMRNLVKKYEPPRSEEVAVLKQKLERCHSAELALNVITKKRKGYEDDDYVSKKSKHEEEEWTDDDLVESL
T1 sequence (P51948 whole entry partner): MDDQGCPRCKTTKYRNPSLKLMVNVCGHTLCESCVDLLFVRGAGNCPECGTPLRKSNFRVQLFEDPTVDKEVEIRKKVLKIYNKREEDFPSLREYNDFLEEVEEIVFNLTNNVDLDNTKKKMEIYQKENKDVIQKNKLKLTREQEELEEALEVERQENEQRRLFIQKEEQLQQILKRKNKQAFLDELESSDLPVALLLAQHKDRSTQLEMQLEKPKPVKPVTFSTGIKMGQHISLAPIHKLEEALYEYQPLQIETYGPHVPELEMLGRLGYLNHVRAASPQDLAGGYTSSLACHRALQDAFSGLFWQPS
Experimental: (§1) Jurkat cells were treated with DMSO or 1 μM of compounds 1-26 for 6 hours. Cells were then lysed in radioimmunoprecipitation assay (RIPA) buffer (Sigma® Life Science) containing protease/phosphatase inhibitor cocktail (Roche). The protein concentrations were measured by bicinchoninic acid assay (BCA) analysis (Pierce™). Equal amounts of protein were resolved by 4-12% Tris-Base gels (Invitrogen™), and then transferred to the immunoblot polyvinylidene difluoride (PVDF) membrane (BioRad), and immunoblotted with primary antibodies against CDK7 (cell signaling) and glyceraldehyde 3-phosphate dehydrogenase (GAPDH) (Cell Signaling Technology®), and then immunoblotted with IRDye®800-labeled goat anti-rabbit immunoglobulin G (IgG) and IRDye®680-labeled goat anti-mouse IgG (LI-COR®) secondary antibodies. The membranes were detected on an Odyssey® CLx system.
Jurkat cells were pretreated with 10 μM YKL-5-124 (the parental compound and known CDK7 inhibitor), 10 μM DGY-05-180 (VHL ligand), 0.2 μM Bortezomib (a proteasome inhibitor available from, e.g., Millipore Sigma, Cat. No. 179324-69-7, Burlington, MA), and 1 μM MLN4924 (a neddylation inhibitor available from, e.g., MedChemExpress (MCE®), Cat. No. HY-70062, Monmouth Junction, NJ), for 2 h, and then treated with 1 μM compound 3 or 20 for 4 h. Cells were lysed and immunoblotted as described in Example 27 with antibodies to CDK7 and GAPDH. The structures of YKL-5-124, DGY-05-180, Bortezomib and MLN4924 are set forth below.

[2] = molecular target: T1, CDK7; assay: CDK7 degradation in Jurkat cells by immunoblot; assay type: cell-based; settings: 1 μM compound, 6 hours, vs DMSO
Experimental: as §1

Compound | rescue of the CDK7 degradation induced by bispecific compound 3 [1] | rescue of the CDK7 degradation induced by bispecific compound 20 [1] | degradation of CDK7 (immunoblot) [2] | dependence of the induced CDK7 degradation [1]
CC(C)C[C@H](NC(=O)[C@H](Cc1ccccc1)NC(=O)c1cnccn1)B(O)O [Bortezomib] | rescued the CDK7 degradation | rescued the CDK7 degradation | – | –
NS(=O)(=O)OC[C@@H]1C[C@@H](n2ccc3c(N[C@H]4CCc5ccccc54)ncnc32)C[C@@H]1O [MLN4924] | rescued the CDK7 degradation | rescued the CDK7 degradation | – | –

Now from value to compound:

rescue of the CDK7 degradation induced by bispecific compound 3 [1] | rescue of the CDK7 degradation induced by bispecific compound 20 [1] | degradation of CDK7 (immunoblot) [2] | dependence of the induced CDK7 degradation [1] | Compound
– | – | induced the degradation of CDK7 | both ligand- and proteasome-dependent | Cc1ncsc1-c1ccc([C@H](C)NC(=O)[C@@H]2C[C@@H](O)CN2C(=O)[C@@H](NC(=O)CCCNC(=O)c2ccc(C(=O)Nc3n[nH]c4c3CN(C(=O)N[C@H](CN(C)C)c3ccccc3)C4(C)C)cc2)C(C)(C)C)cc1 [Compound 3, N1-(5-(((S)-2-(dimethylamino)-1-phenylethyl)carbamoyl)-6,6-dimethyl-1,4,5,6-tetrahydropyrrolo[3,4-c]pyrazol-3-yl)-N4-(4-(((S)-1-((2S,4R)-4-hydroxy-2-(((S)-1-(4-(4-methylthiazol-5-yl)phenyl)ethyl)carbamoyl)pyrrolidin-1-yl)-3,3-dimethyl-1-oxobutan-2-yl)amino)-4-oxobutyl)terephthalamide]
– | – | induced the degradation of CDK7 | both ligand- and proteasome-dependent | Cc1ncsc1-c1ccc([C@H](C)NC(=O)[C@@H]2C[C@@H](O)CN2C(=O)[C@@H](NC(=O)CCCCNC(=O)c2ccc(C(=O)Nc3n[nH]c4c3CN(C(=O)N[C@H](CN(C)C)c3ccccc3)C4(C)C)cc2)C(C)(C)C)cc1 [Compound 20, N^1-(5-(((S)-2-(dimethylamino)-1-phenylethyl)carbamoyl)-6,6-dimethyl-1,4,5,6-tetrahydropyrrolo[3,4-c]pyrazol-3-yl)-N^4-(5-(((S)-1-((2S,4R)-4-hydroxy-2-(((S)-1-(4-(4-methylthiazol-5-yl)phenyl)ethyl)carbamoyl)pyrrolidin-1-yl)-3,3-dimethyl-1-oxobutan-2-yl)amino)-5-oxopentyl)terephthalamide]
rescued the CDK7 degradation | rescued the CDK7 degradation | – | – | C=CC(=O)Nc1ccc(C(=O)Nc2n[nH]c3c2CN(C(=O)N[C@H](CN(C)C)c2ccccc2)C3(C)C)cc1 [YKL-5-124]
